PubChem BioAssay (NCI)
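Values below derive from 48-hour exposures of cells grown in 96-well plates, with endpoints linearly interpolated between the two concentrations bracketing the appropriate inhibition level. GI50 is the concentration that inhibits growth by half. TGI: concentration producing complete growth inhibition.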

What was measured:
Assay in all cases: NCI-60 cell line screen, 48 h
M14 melanoma = tested on: M14 melanoma
NCI-H226 lung = tested on: NCI-H226 lung
NCI-H460 lung = tested on: NCI-H460 lung
OVCAR-3 ovarian = tested on: OVCAR-3 ovarian
OVCAR-4 ovarian = tested on: OVCAR-4 ovarian
OVCAR-5 ovarian = tested on: OVCAR-5 ovarian
RPMI-8226 leukemia = tested on: RPMI-8226 leukemia
SF-295 CNS = tested on: SF-295 CNS
SK-MEL-5 melanoma = tested on: SK-MEL-5 melanoma
UACC-257 melanoma = tested on: UACC-257 melanoma

SMILES	TGI (M14 melanoma)	TGI (NCI-H226 lung)	TGI (NCI-H460 lung)	TGI (OVCAR-3 ovarian)	TGI (OVCAR-4 ovarian)	TGI (OVCAR-5 ovarian)	TGI (RPMI-8226 leukemia)	TGI (SF-295 CNS)	TGI (SK-MEL-5 melanoma)	TGI (UACC-257 melanoma)	GI50 (NCI-H226 lung)	GI50 (NCI-H460 lung)	GI50 (OVCAR-3 ovarian)	GI50 (SF-295 CNS)	GI50 (SK-MEL-5 melanoma)	GI50 (UACC-257 melanoma)	GI50 (M14 melanoma)	GI50 (OVCAR-4 ovarian)	GI50 (OVCAR-5 ovarian)	GI50 (RPMI-8226 leukemia)
N=C1SCCS1	> 100 µM	> 100 µM	> 100 µM	> 100 µM	> 100 µM	> 100 µM	> 100 µM	> 100 µM	> 100 µM	> 100 µM										
Nc1cccc2cc(S(=O)(=O)Nc3ccc(C(=O)O)cc3)ccc12	> 100 µM	> 100 µM	> 100 µM	> 100 µM	> 100 µM	> 100 µM	> 100 µM	> 100 µM	> 100 µM	> 100 µM										
CC(C)=CCC/C(C)=C/CC/C(C)=C/C(O)c1ccccc1 (stereo not given)	32.7 µM	46.2 µM	35.3 µM	36.3 µM	> 10 µM	32.5 µM	49.5 µM	33.8 µM	30.2 µM	35.6 µM										
O=C1c2ccccc2-c2ccc(N(Cc3ccc(Br)cc3)Cc3ccc(Br)cc3)cc21	> 100 µM	> 100 µM	> 100 µM	> 100 µM	> 100 µM	> 100 µM	> 100 µM	> 100 µM	> 100 µM	> 100 µM										
O=C(c1no[n+]([O-])c1C(=O)c1csc2ccccc12)c1csc2ccccc12	22.4 µM	35 µM	28.3 µM	3.78 µM	7.3 µM	35.4 µM	1.95 µM	29 µM	26.1 µM	16.3 µM										
CC(=O)NC1C(OCc2ccccc2)OC(CO)C(O)C1OC(C)C(=O)NC(C(=O)NC(CCC(=O)Nc1ccc2c(c1)CN1C(=O)c3ccccc3C1=N2)C(N)=O)C(C)C (stereo not given)	> 100 µM		> 100 µM	> 100 µM	> 100 µM	> 100 µM	> 100 µM	> 100 µM	> 100 µM	> 100 µM										
NC(=O)OCc1c(O)c2c(c(O)c1COC(N)=O)C(=O)C=CC2=O	> 100 µM	> 100 µM		> 100 µM	> 100 µM	> 100 µM	> 100 µM	> 100 µM	> 100 µM	> 100 µM										
CC(=O)Nc1ccc2c(c1)C(=Nc1ccc(C(=O)O)cc1)c1ccccc1-2	> 100 µM	87.1 µM	> 100 µM	> 100 µM	> 100 µM	> 100 µM	> 100 µM	> 100 µM	> 100 µM	> 100 µM										
CCOC(=O)c1c(C)n(-c2ccc(C)cc2)c2c1cc(O)c1[nH]c3c(c12)CCCC3	42.6 µM	60 µM	84.5 µM	51.1 µM	51.3 µM	> 100 µM	24.8 µM	65.2 µM	24.3 µM	56.7 µM										
CC(C)c1cccc(C(C)C)c1NC(=S)Nc1ccccc1	> 100 µM	> 100 µM	> 100 µM	> 100 µM	> 100 µM	> 100 µM	> 100 µM	> 100 µM	> 100 µM	> 100 µM										
O=C1C(c2c(O)n(-c3ccccc3)c3ccccc23)=Nc2ccccc21	> 100 µM	70 µM	> 100 µM	> 100 µM	> 100 µM	> 100 µM	> 100 µM	> 100 µM	69.8 µM	> 100 µM										
CSc1nc(NC2OC(CO)C(O)C(O)C2O)c(N)c(=O)n1C (stereo not given)		> 100 µM	> 100 µM	> 100 µM	> 100 µM	> 100 µM	> 100 µM	> 100 µM	> 100 µM	> 100 µM										
CCCCC[C@H]1CC=CC(=O)O1	26.7 µM	23.9 µM	21.2 µM	21.9 µM	27.3 µM	70 µM	19.3 µM	37.1 µM	21.3 µM	32.6 µM										
CCCCCCCCCCCCCCCc1ccc(C(=O)C[n+]2ccccc2)cc1		> 100 µM	1.78 µM	3.64 µM				14.2 µM	3.93 µM	3.51 µM	4.15 µM	546 nM	1790 nM	0.653 µM	1440 nM	1700 nM				
CCN(CC)CCSc1nc2c([N+](=O)[O-])cccc2[nH]1	> 100 µM	> 100 µM		> 100 µM	> 100 µM		> 100 µM		> 100 µM	> 100 µM										
COC(=O)c1c(OC(C)=O)ccc2c1c1c(n2Cc2ccccc2)C(=O)c2ccccc2C1=O	47.5 µM	49.3 µM	> 100 µM	36.3 µM	74.2 µM	41.3 µM	36.4 µM	38.5 µM	28.1 µM	26.8 µM										
O=C1Nc2ccccc2/C1=C\c1c(Cl)[nH]c2ccccc12	4.12 µM	35.5 µM	2.59 µM	17.5 µM		5.05 µM	3.34 µM	0.956 µM	2.04 µM	17 µM										
COc1ccc([N+](=O)[O-])cc1[I+]c1cc([N+](=O)[O-])ccc1OC	> 100 µM	> 100 µM	80.3 µM	> 100 µM		> 100 µM	> 100 µM	> 100 µM	24.9 µM	> 100 µM										
N/C(=N/O)c1cn(C2OC(CO)C(O)C2O)c2ncnc(NO)c12 (stereo not given)	2.88 µM	17.4 µM	7.59 µM		5.98 µM	> 57.7 µM	1.86 µM	54.7 µM	0.892 µM	4.4 µM										
N=C(N)c1ccc(-c2ccc(-c3ccccc3)o2)cc1	3.66 µM	27.7 µM	3.65 µM	13.4 µM	4.9 µM	6.95 µM	7.29 µM		3.72 µM	4.56 µM	7.93 µM	1930 nM	3300 nM		1940 nM	2210 nM	1770 nM	1960 nM	2.11 µM	2750 nM
CC[n+]1c(/C=C/c2ccc(N(CCCl)CCCl)cc2)ccc2cc(Br)ccc21	4.19 µM	7.48 µM	11.4 µM	2.22 µM	7.98 µM									1150 µM	135000 nM	95800 nM			202 µM	162000 nM
COc1cccc(/C=N/[N-]C(N)=O)c1[O-].[OH3+].[Zn+2]	> 100 µM	> 100 µM	> 100 µM	> 100 µM	> 100 µM	> 100 µM	> 100 µM	> 100 µM	> 100 µM	> 100 µM										
O=C(Nc1ccc(-n2cc(-c3ccncc3)c(-c3ccc(O)c(Cl)c3)n2)cc1)c1ccc(Cl)c(Cl)c1	1.52 µM	> 32.5 µM	> 32.5 µM	> 32.5 µM	> 32.5 µM	> 32.5 µM	1.44 µM	2.26 µM	> 32.5 µM	> 32.5 µM	> 32.5 µM	1580 nM	2110 nM	0.833 µM	1000 nM	> 32500 nM	668 nM	2710 nM	> 32.5 µM	537 nM
Cc1ccc(CCCC(=O)O)cc1C	> 100 µM	> 100 µM	> 100 µM	> 100 µM	> 100 µM	> 100 µM	> 100 µM	> 100 µM	> 100 µM	> 100 µM										
CNC1=C(C)C(=O)C2=C(C1=O)C(COC(N)=O)C1(OC)C3NC3CN21 (stereo not given)	2.01 µM	4.66 µM	0.251 µM	21.6 µM	25.7 µM	50.2 µM	66.7 µM	10.5 µM	0.268 µM	3.64 µM										
CC(=O)NC1C(OCc2ccccc2)OC(CO)C(O)C1OCC(=O)NC(C)C(=O)NC(CCC(=O)Nc1ccc2c(c1)CN1C(=O)c3ccccc3C1=N2)C(N)=O (stereo not given)	> 100 µM		> 100 µM	> 100 µM	> 100 µM	> 100 µM	> 100 µM	> 100 µM	> 100 µM	> 100 µM										
